Laboratory results as given in ChEMBL document CHEMBL4477239 (Bioorg Med Chem, 2016).

Tests used:
NCI-H1993 = assay: Cytotoxicity against human NCI-H1993 cells assessed as growth inhibition after 72 hrs by CCK-8 assay; settings: NCI-H1993, 72 h
[1] = molecular target: Hepatocyte growth factor receptor (Homo sapiens, UniProt P08581)
Hepatocyte growth factor receptor, sequence (P08581 whole entry): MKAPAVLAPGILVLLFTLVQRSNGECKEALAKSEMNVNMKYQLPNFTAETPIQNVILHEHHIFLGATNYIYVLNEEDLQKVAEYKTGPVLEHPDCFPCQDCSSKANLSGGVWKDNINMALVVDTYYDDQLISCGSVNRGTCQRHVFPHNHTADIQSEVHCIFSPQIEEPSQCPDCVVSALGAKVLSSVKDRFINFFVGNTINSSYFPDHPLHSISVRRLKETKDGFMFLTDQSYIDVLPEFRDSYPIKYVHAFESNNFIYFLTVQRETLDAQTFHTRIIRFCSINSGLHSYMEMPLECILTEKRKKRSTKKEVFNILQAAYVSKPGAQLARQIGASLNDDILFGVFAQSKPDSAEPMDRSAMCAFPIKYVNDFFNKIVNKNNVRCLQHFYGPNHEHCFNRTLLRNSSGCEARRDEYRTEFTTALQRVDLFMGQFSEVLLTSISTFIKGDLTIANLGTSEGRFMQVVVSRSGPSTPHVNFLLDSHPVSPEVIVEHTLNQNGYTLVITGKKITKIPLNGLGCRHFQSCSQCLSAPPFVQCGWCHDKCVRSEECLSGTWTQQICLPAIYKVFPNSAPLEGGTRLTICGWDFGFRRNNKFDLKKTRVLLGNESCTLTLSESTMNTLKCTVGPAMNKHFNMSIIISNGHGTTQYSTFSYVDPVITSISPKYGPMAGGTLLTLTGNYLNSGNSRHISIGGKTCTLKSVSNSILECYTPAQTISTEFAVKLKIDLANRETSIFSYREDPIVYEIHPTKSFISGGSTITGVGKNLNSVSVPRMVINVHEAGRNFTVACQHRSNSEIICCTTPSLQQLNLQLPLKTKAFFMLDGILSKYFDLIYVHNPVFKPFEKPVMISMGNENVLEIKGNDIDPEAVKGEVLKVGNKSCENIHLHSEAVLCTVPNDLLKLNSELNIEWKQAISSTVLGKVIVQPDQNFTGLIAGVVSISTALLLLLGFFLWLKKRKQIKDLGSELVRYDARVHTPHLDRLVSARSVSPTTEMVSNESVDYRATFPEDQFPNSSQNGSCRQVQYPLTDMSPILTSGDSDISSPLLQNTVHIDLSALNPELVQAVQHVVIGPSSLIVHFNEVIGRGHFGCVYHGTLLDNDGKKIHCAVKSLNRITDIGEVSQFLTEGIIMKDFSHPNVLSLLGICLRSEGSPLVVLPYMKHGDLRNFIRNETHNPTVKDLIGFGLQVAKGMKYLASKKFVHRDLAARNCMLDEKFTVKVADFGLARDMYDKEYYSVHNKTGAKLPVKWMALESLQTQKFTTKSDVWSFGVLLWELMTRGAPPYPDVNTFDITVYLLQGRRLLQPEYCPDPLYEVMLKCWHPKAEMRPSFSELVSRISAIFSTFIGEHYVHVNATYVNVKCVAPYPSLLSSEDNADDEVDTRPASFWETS
Description: Inhibition of c-Met kinase (unknown origin) assessed as decrease in phosphorylation of TK substrate-biotin peptide preincubated for 5 to 10 mins followed by ATP addition measured after 30 mins by HTRF assay

| Compound | IC50 [1] | IC50 (NCI-H1993) |
| --- | --- | --- |
| Cn1cc(-c2cnc3ncn(Cc4ccc5ncccc5c4)c3n2)cn1 | – | 617 nM |
| CC(c1cc(F)c2ncccc2c1)n1cnc2ncc(-c3cnn(C)c3)nc21 (centres undefined) | 91.8 nM | > 10000 nM |
| CC(c1cc(F)c2ncccc2c1)n1cnc2ncc(-c3ccccc3)nc21 (centres undefined) | 155 nM | > 10000 nM |
| CCC(c1cc2cccnc2cc1F)n1cnc2ncc(-c3cnc4ccccc4c3)nc21 (centres undefined) | 17.2 nM | – |
| C1=C(c2cnc3ncn(Cc4ccc5ncccc5c4)c3n2)CCNC1 | 33.2 nM | 6660 nM |
| Cc1c(C(C)n2cnc3ncc(-c4ccncc4)nc32)ccc2ncccc12 (centres undefined) | 4.4 nM | 950 nM |
| c1ccc(-c2cnc3ncn(Cc4ccc5ncccc5c4)c3n2)cc1 | 17.6 nM | 7490 nM |
| CC(c1cc(F)c2ncccc2c1)n1cnc2ncc(-c3cn[nH]c3)nc21 (centres undefined) | 279 nM | > 10000 nM |
| CC(c1c(F)cc2ncccc2c1F)n1cnc2ncc(-c3cccc4ccccc34)nc21 (centres undefined) | 23.8 nM | – |
| Nc1ccc(-c2cnc3ncn(Cc4ccc5ncccc5c4)c3n2)cc1 | 12.4 nM | 4950 nM |
| Cc1c(C(C)n2cnc3ncc(-c4cnn(C)c4)nc32)ccc2ncccc12 (centres undefined) | 3.2 nM | 206 nM |
| CCC(c1ccc2ncccc2c1F)n1cnc2ncc(-c3ccccc3)nc21 (centres undefined) | 81 nM | – |
| Cc1cc2ncccc2cc1C(C)n1cnc2ncc(-c3cnc4ccccc4c3)nc21 (centres undefined) | 38.1 nM | – |
| CCC(c1cc2cccnc2cc1F)n1cnc2ncc(-c3cnn(C)c3)nc21 (centres undefined) | 10.6 nM | – |
| CCC(c1cc2cccnc2cc1F)n1cnc2ncc(-c3cnn(CCO)c3)nc21 (centres undefined) | 9.3 nM | – |
| FC(F)(F)c1ccc(-c2cnc3ncn(Cc4ccc5ncccc5c4)c3n2)cc1 | 27.9 nM | > 10000 nM |
| OCCn1cc(-c2cnc3ncn(Cc4ccc5ncccc5c4)c3n2)cn1 | 15.9 nM | 2320 nM |
| Cc1cc2ncccc2cc1C(C)n1cnc2ncc(-c3cnn(C)c3)nc21 (centres undefined) | 32.6 nM | – |
| CCC(c1ccc2ncccc2c1F)n1cnc2ncc(-c3cnn(C)c3)nc21 (centres undefined) | 13.5 nM | – |

| Compound | IC50 [1] | IC50 (NCI-H1993) |
| --- | --- | --- |
| Cc1c(C(C)n2cnc3ncc(-c4cn[nH]c4)nc32)ccc2ncccc12 (centres undefined) | 2.7 nM | 599 nM |
| FC(F)(F)Oc1ccc(-c2cnc3ncn(Cc4ccc5ncccc5c4)c3n2)cc1 | 81.2 nM | > 10000 nM |
| c1cnc2ccc(Cn3cnc4ncc(-c5cn[nH]c5)nc43)cc2c1 | 13.2 nM | 2890 nM |
| CCC(c1ccc2ncccc2c1F)n1cnc2ncc(-c3cnn(CCO)c3)nc21 (centres undefined) | 22.5 nM | – |
| CCC(c1ccc2ncccc2c1F)n1cnc2ncc(-c3cnc4ccccc4c3)nc21 (centres undefined) | 16.4 nM | – |
| CC(c1c(F)cc2ncccc2c1F)n1cnc2ncc(-c3ccccc3)nc21 (centres undefined) | 1.8 nM | 514 nM |
| Cn1nccc1-c1cnc2ncn(Cc3ccc4ncccc4c3)c2n1 | 66.6 nM | 7910 nM |
| CCC(c1ccc2ncccc2c1F)n1cnc2ncc(-c3cn[nH]c3)nc21 (centres undefined) | 37.7 nM | – |
| CCC(c1cc2cccnc2cc1F)n1cnc2ncc(-c3ccccc3)nc21 (centres undefined) | 28.1 nM | – |
| CC(c1cc(F)c2ncccc2c1)n1cnc2ncc(-c3ccncc3)nc21 (centres undefined) | 190 nM | > 10000 nM |
| CCC(c1cc2cccnc2cc1F)n1cnc2ncc(-c3cn[nH]c3)nc21 (centres undefined) | 8.7 nM | – |
| C[C@H](c1cc2cccnc2cc1F)n1cnc2ncc(-c3cnn(C)c3)nc21 | 1.94 nM | 239 nM |
| c1cnc2ccc(Cn3cnc4ncc(-c5ccncc5)nc43)cc2c1 | 17.5 nM | 1160 nM |
| CCC(c1cc2cccnc2cc1F)n1cnc2ncc(-c3ccncc3)nc21 (centres undefined) | 14.1 nM | – |
| Cc1c(C(C)n2cnc3ncc(-c4cnn(CCO)c4)nc32)ccc2ncccc12 (centres undefined) | 4.2 nM | 726 nM |
| CCC(c1ccc2ncccc2c1F)n1cnc2ncc(-c3ccncc3)nc21 (centres undefined) | 100 nM | – |
| Cc1cc2ncccc2cc1C(C)n1cnc2ncc(-c3ccncc3)nc21 (centres undefined) | 68.3 nM | – |
| OCCn1cc(-c2cnc3nnn(Cc4ccc5ncccc5c4)c3n2)cn1 [PF-04217903] | – | 33.6 nM |

Further lines, with some results ahead:

| IC50 [1] | Compound | IC50 (NCI-H1993) |
| --- | --- | --- |
| 2.79 nM | C[C@H](c1cc2cccnc2cc1F)n1cnc2ncc(-c3ccc(C(N)=O)c(F)c3)nc21 | 329 nM |
| > 1000 nM | Cn1cc(-c2cnc3nc(O)n(Cc4ccc5ncccc5c4)c3n2)cn1 | > 10000 nM |
| 7.7 nM | CCC(c1ccc2ncccc2c1F)n1cnc2ncc(-c3ccc(C(=O)NC)c(F)c3)nc21 (centres undefined) | – |
| 18.1 nM | CCC(c1cc2cccnc2cc1F)n1cnc2ncc(-c3ccc(C(=O)OC)c(F)c3)nc21 (centres undefined) | – |
| 3.3 nM | CC(NC/N=C/c1cnc2[nH]ccc2c1)c1ccc2ncccc2c1 (centres undefined) | 956 nM |
| 12.7 nM | CC(NC/N=C/c1cnn(CCO)c1)c1ccc2ncccc2c1 (centres undefined) | 148 nM |
| 5.9 nM | COC(=O)c1ccc(-c2cnc3ncn(C(C)c4ccc5ncccc5c4C)c3n2)cc1F (centres undefined) | – |
| 5.17 nM | CC(NC/N=C/c1ccccc1)c1ccc2ncccc2c1 (centres undefined) | 1220 nM |
| 15.2 nM | CC(NC/N=C/C1=CCNCC1)c1ccc2ncccc2c1 (centres undefined) | 2660 nM |
| 3.6 nM | CC(c1cc2cccnc2cc1F)n1cnc2ncc(-c3cn[nH]c3)nc21 (centres undefined) | 187 nM |
| 31 nM | CNC(=O)c1ccc(-c2cnc3ncn(C(C)c4cc5cccnc5cc4C)c3n2)cc1F (centres undefined) | – |
| 6.41 nM | COC(=O)c1ccc(/C=N/CNC(C)c2ccc3ncccc3c2)cc1F (centres undefined) | 1110 nM |
| 39.2 nM | CCC(c1ccc2ncccc2c1F)n1cnc2ncc(-c3ccc(C(=O)OC)c(F)c3)nc21 (centres undefined) | – |
| 24.6 nM | Fc1ccccc1-c1cnc2ncn(Cc3ccc4ncccc4c3)c2n1 | > 10000 nM |
| 3.8 nM | CC(c1cc2cccnc2cc1F)n1cnc2ncc(-c3ccncc3)nc21 (centres undefined) | 171 nM |
| > 1000 nM | Oc1nc2ncc(-c3ccncc3)nc2n1Cc1ccc2ncccc2c1 | > 10000 nM |

| IC50 [1] | Compound | IC50 (NCI-H1993) |
| --- | --- | --- |
| 2.49 nM | CC(NC/N=C/c1cnn(C)c1)c1ccc2ncccc2c1 (centres undefined) | 197 nM |
| > 1000 nM | Oc1nc2ncc(-c3ccccc3)nc2n1Cc1ccc2ncccc2c1 | > 10000 nM |
| 2.74 nM | CC(NC/N=C/c1ccc(C(N)=O)c(F)c1)c1ccc2ncccc2c1 (centres undefined) | 238 nM |
| 3.95 nM | CNC(=O)c1ccc(/C=N/CNC(C)c2ccc3ncccc3c2)cc1F (centres undefined) | 191 nM |
| 9.4 nM | CCC(c1cc2cccnc2cc1F)n1cnc2ncc(-c3ccc(C(=O)NC)c(F)c3)nc21 (centres undefined) | – |
| 38.5 nM | CC(NC/N=C/c1ccnn1C)c1ccc2ncccc2c1 (centres undefined) | 3280 nM |
| 40 nM | CN(C)c1cccc(-c2cnc3ncn(Cc4ccc5ncccc5c4)c3n2)c1 | > 10000 nM |
| 11.4 nM | CC(NC/N=C/c1cn[nH]c1)c1ccc2ncccc2c1 (centres undefined) | 519 nM |
| 11.7 nM | Cc1cc2ncccc2cc1C(C)n1cnc2ncc(-c3ccc(C(N)=O)c(F)c3)nc21 (centres undefined) | – |
| 641 nM | Cc1nc2ncc(-c3cnn(C)c3)nc2n1Cc1ccc2ncccc2c1 | > 10000 nM |
| 64.5 nM | COC(=O)c1ccc(-c2cnc3ncn(C(C)c4cc5cccnc5cc4C)c3n2)cc1F (centres undefined) | – |
| 4.5 nM | CC(c1cc2cccnc2cc1F)n1cnc2ncc(-c3cnn(CCO)c3)nc21 (centres undefined) | 175 nM |
| 3.67 nM | CC(NC/N=C/c1ccncc1)c1ccc2ncccc2c1 (centres undefined) | 614 nM |
| 4.6 nM | CC(c1cc2cccnc2cc1F)n1cnc2ncc(-c3ccccc3)nc21 (centres undefined) | 570 nM |
| > 1000 nM | CC(c1cc(F)c2ncccc2c1)n1cnc2ncc(-c3cccc4ccccc34)nc21 (centres undefined) | – |
